In brackets after ≈: the same amount, converted by molar mass. Activity calls are given as the source filed them. The rule behind the calls is not given here.
What was measured:
THP-1 = experiment: Cytotoxicity against human THP-1 cells assessed as cell viability measured after 96 hrs by MTT assay; type: cell-based; settings: THP-1, 96 h
[1] = test system: Mycobacterium tuberculosis; experiment: Antimycobacterial activity against Mycobacterium tuberculosis H37Rv assessed as inhibition of visible growth […]; type: functional
[2] = Selectivity index, ratio of MIC99 for Mycobacterium tuberculosis H37Rv to IC50 for human THP-1 cells; type: functional
FMN riboswitch = experiment: Binding affinity to Lactobacillus plantarum NCDO 1752 FMN riboswitch at 150 nM measured by fluorescence assay; type: nucleic-acid assay; settings: Lactiplantibacillus plantarum
Bacillus subtilis [3] = experiment: Antibacterial activity against Bacillus subtilis assessed as inhibition of bacterial growth; type: functional
Staphylococcus aureus [4] = experiment: Antibacterial activity against Staphylococcus aureus assessed as inhibition of bacterial growth; type: functional
Staphylococcus aureus [5] = experiment: Antibacterial activity against Staphylococcus aureus assessed as inhibition of bacterial growth at 100 to 200 uM; type: functional; settings: dose 100-200 µM
Bacillus subtilis [6] = experiment: Antibacterial activity against Bacillus subtilis assessed as inhibition of bacterial growth at 100 to 200 uM; type: functional; settings: dose 100-200 µM

Row | SMILES | IC50 (THP-1) [µM] | MIC99 [1] [µM] | Selectivity Index [2] | Kb (FMN riboswitch) | inhibition (Bacillus subtilis [3]) | inhibition (Staphylococcus aureus [4]) | inhibition (INH) (Staphylococcus aureus [5]) [%] | inhibition (INH) (Bacillus subtilis [6]) [%] | MIC (Bacillus subtilis [3]) [µM] | MIC (Staphylococcus aureus [4]) [µM]
1 | Cc1cc2nc3c(=O)[nH]c(=O)nc-3n(CCO)c2cc1C | > 50 | > 50 | 1 | – | – | – | – | – | – | –
2 | Cc1cc2nc3c(=O)[nH]c(=O)nc-3n(CC(O)O)c2cc1C | > 100 | 6.25 (≈ 1.89 µg/mL) | >10.7 | 5.42 10^5/M | – | – | – | – | – | –
3 | CCCCCC(=O)OC[C@H](OC(=O)CCCCC)[C@H](OC(=O)CCCCC)[C@@H](Cn1c2nc(=O)[nH]c(=O)c-2nc2cc(C)c(C)cc21)OC(=O)CCCCC | > 50 | 50 (≈ 38.4 µg/mL) | >1 | – | – | – | – | – | – | –
4 | CCCCCCCCCCCC(=O)OC[C@H](OC(=O)CCCCCCCCCCC)[C@H](O)[C@H](O)Cn1c2nc(=O)[nH]c(=O)c-2nc2cc(C)c(C)cc21 | 25 | > 50 | <0.5 | – | – | – | – | – | – | –
5 | CCCCCCCCCCCC(=O)OC[C@H](OC(=O)CCCCCCCCCCC)[C@H](OC(=O)CCCCCCCCCCC)[C@H](O)Cn1c2nc(=O)[nH]c(=O)c-2nc2cc(C)c(C)cc21 | 50 | > 50 | 1 | – | Active | Active | – | – | – | –
6 | CCCC(=O)OC[C@H](OC(=O)CCC)[C@H](OC(=O)CCC)[C@H](O)Cn1c2nc(=O)[nH]c(=O)c-2nc2cc(C)c(C)cc21 | > 100 | 50 (≈ 29.3 µg/mL) | >2 | – | – | – | >90 | >90 | – | –
7 | CCCCCCCCCCCC(=O)OC[C@H](OC(=O)CCCCCCCCCCC)[C@H](OC(=O)CCCCCCCCCCC)[C@@H](Cn1c2nc(=O)[nH]c(=O)c-2nc2cc(C)c(C)cc21)OC(=O)CCCCCCCCCCC | > 50 | > 50 | 1 | – | – | – | – | – | 100 (≈ 111 µg/mL) | 100 (≈ 111 µg/mL)
8 | CC(=O)OC[C@H](OC(C)=O)[C@H](OC(C)=O)[C@@H](Cn1c2nc(=O)n(C)c(=O)c-2nc2cc(C)c(C)cc21)OC(C)=O | > 100 | 12.5 (≈ 6.98 µg/mL) | >2 | – | – | – | – | – | – | –
9 | CCCCCC(=O)OC[C@H](OC(=O)CCCCC)[C@H](OC(=O)CCCCC)[C@H](O)Cn1c2nc(=O)[nH]c(=O)c-2nc2cc(C)c(C)cc21 | > 100 | 25 (≈ 16.8 µg/mL) | >4 | – | – | – | – | – | – | –
10 | CCCC(=O)OC[C@H](OC(=O)CCC)[C@H](OC(=O)CCC)[C@@H](Cn1c2nc(=O)[nH]c(=O)c-2nc2cc(C)c(C)cc21)OC(=O)CCC | 100 | 50 (≈ 32.8 µg/mL) | 2 | – | – | – | >90 | >90 | – | –
11 | CCCC(=O)OC[C@H](OC(=O)CCC)[C@H](O)[C@H](O)Cn1c2nc(=O)[nH]c(=O)c-2nc2cc(C)c(C)cc21 | > 100 | 25 (≈ 12.9 µg/mL) | >4 | – | – | – | >90 | >90 | – | –
12 | CCCCCCCCCCCC(=O)OC[C@H](O)[C@H](O)[C@H](O)Cn1c2nc(=O)[nH]c(=O)c-2nc2cc(C)c(C)cc21 | 50 | > 50 | 1 | – | – | – | – | – | – | –
13 | CC(=O)OC[C@H](OC(C)=O)[C@H](OC(C)=O)[C@@H](Cn1c2nc(=O)[nH]c(=O)c-2nc2cc(C)c(C)cc21)OC(C)=O | 25 | 25 (≈ 13.6 µg/mL) | 1 | – | – | – | – | – | – | –
14 | NNC(=O)c1ccncc1 [ISONIAZID] | 100 | 0.78 (≈ 0.107 µg/mL) | – | – | – | – | – | – | – | –
